These results are taken from US11407737B2, “Inhibitors of RAF kinases” (Kinnate Biopharma Inc., priority 2020, dated 2022).

The target of the experiment is human RAF1 (Homo sapiens (Human), UniProt P04049). Kind of experiment: Protein kinase assay (radiometric 33P-ATP, MEK1 (K97R) substrate), RAF-1. The class given is biochemical. The conditions noted are these: human MEK1 (K97R) substrate 3 micromolar, ATP 10 micromolar; 10-dose, 3-fold serial dilution starting at 10 micromolar; read-out: RAF-1 IC50. The protocol:
Example 1: Kinase Assay Protocol
Assay platform was used to measure kinase/inhibitor interactions as described previously (Anastassiadis et al., 2011). In brief, for each reaction, kinase and substrate were mixed in a buffer containing 20 mM HEPES (pH 7.5), 10 mM MgCl2, 1 mM EGTA, 0.02% Brij35, 0.02 mg/mL BSA, 0.1 mM Na3VO4, 2 mM DTT, and 1% DMSO. All compounds were solubilized in DMSO. Compounds were then added to each reaction mixture via acoustic dispense using an ECHO 550 nanoliter dispenser. For human RAF1 testing, human MEK1 (K97R) was used as a substrate at a concentration of 3 micromolar, with a final ATP concentration of 10 micromolar. For human BRAF testing, human MEK1 (K97R) was used as a substrate at 1 micromolar concentration, with a final ATP concentration of 25 micromolar. […] After a 20-min incubation, ATP (Sigma-Aldrich, St. Louis, Mo. 63178) and [g33P] ATP (specific activity 10 microCi/microliter) purchased at PerkinElmer (Boston, Mass., 02118 Cat #BLU 003H250UC) were added at a final total concentration of […]. Reactions were carried out at room temperature for 2 hr and spotted onto P81 ion exchange cellulose chromatography paper (Reaction Biology). Filter paper was washed in 0.75% phosphoric acid to remove unincorporated ATP. The percent remaining kinase activity relative to a vehicle-containing (DMSO) kinase reaction was calculated for each kinase/inhibitor pair. IC50 values were calculated using Prism 5 (GraphPad).

Counter-ions that a name gives are not always drawn.

Chain of human RAF1 (P04049 whole entry): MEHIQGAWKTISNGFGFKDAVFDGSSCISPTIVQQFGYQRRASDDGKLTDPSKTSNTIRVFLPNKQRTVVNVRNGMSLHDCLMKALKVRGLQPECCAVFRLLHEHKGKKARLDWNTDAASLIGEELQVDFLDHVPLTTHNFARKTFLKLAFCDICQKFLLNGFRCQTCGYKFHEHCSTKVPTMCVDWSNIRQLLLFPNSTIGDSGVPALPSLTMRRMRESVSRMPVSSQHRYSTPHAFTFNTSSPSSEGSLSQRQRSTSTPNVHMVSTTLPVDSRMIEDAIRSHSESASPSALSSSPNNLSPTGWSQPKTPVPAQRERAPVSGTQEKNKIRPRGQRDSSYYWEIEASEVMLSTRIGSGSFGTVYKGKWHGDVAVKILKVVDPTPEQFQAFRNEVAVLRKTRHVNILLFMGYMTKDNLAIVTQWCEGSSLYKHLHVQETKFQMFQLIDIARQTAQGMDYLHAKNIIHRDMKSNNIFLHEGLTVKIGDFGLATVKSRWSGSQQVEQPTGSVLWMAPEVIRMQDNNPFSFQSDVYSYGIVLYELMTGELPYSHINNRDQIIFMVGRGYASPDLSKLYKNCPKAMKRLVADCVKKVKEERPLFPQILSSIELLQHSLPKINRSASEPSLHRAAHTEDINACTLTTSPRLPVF

Regarding `Cc1ccc(NC(=O)N2CC[C@@H](CC(F)(F)F)C2)cc1-c1cc(C2=CCN(C)CC2)nc(N2CCOCC2)c1` [Example 31, (3S)—N-[4-methyl-3-[1′-methyl-6-(morpholin-4-yl)-3′,6′-dihydro-2′H-[2,4′-bipyridin]-4-yl]phenyl]-3-(2,2,2-trifluoroethyl)pyrrolidine-1-carboxamide], the IC50 was in the range of 10 to 100 nM.

Regarding `Cc1cc(F)c(NC(=O)N2CC[C@H](C(F)(F)C(F)(F)F)C2)cc1-c1cc(-c2cnn(C)c2)nc(N2CCOCC2)c1` (single isomer, unassigned) [Example 81], the IC50 lay in the range of 1 to 10 nM.

For the compound `Cc1cc(F)c(NC(=O)N2CCC(C(C)(C)F)C2)cc1-c1cc(-c2cnn(C)c2)nc(N2CCOCC2)c1` (centres unmarked) [Example 85, N-{2-fluoro-4-methyl-5-[2-(1-methylpyrazol-4-yl)-6-(morpholin-4-yl)pyridin-4-yl]phenyl}-3-(2-fluoropropan-2-yl)pyrrolidine-1-carboxamide], the IC50 fell in the range of 1 to 10 nM.

Consider `Cc1ccc(NC(=O)N2CC[C@@H](CC(F)(F)F)C2)cc1-c1cc(-c2ccnn2CCO)nc(N2CCOCC2)c1` [Example 59, (3S)—N-(3-{2-[2-(2-hydroxyethyl)pyrazol-3-yl]-6-(morpholin-4-yl)pyridin-4-yl}-4-methylphenyl)-3-(2,2,2-trifluoroethyl)pyrrolidine-1-carboxamide], for which the IC50 fell in the range of 1 to 10 nM.

Take `Cc1ccc(NC(=O)N2CC[C@@H](CC(F)(F)F)C2)cc1-c1cc(-c2cnn(C)c2C)nc(N2CCOCC2)c1` [Example 48, (3S)—N-[3-[2-(1,5-dimethylpyrazol-4-yl)-6-(morpholin-4-yl)pyridin-4-yl]-4-methylphenyl]-3-(2,2,2-trifluoroethyl)pyrrolidine-1-carboxamide]: the half-inhibitory concentration (IC50) was under 1 nM.

`Cc1ccc(NC(=O)N2CC[C@@H](CC(F)(F)F)C2)cc1-c1cc(C2CCCNC2)nc(N2CCOCC2)c1` (stereo partly drawn) [Example 28, (3S)—N-[4-methyl-3-[2-(morpholin-4-yl)-6-(piperidin-3-yl)pyridin-4-yl]phenyl]-3-(2,2,2-trifluoroethyl)pyrrolidine-1-carboxamide]: the IC50 is 10 to 100 nM.

For the compound `Cc1cc(F)c(NC(=O)N2CC[C@@H](C(C)(F)F)C2)cc1-c1cc(-c2cnn(C)c2)nc(N2CCOCC2)c1` (single isomer, unassigned) [Example 84], the IC50 is under 1 nM.

For `Cc1ccc(NC(=O)N2CC[C@@H](CC(F)(F)F)C2)cc1-c1cc(C(=O)N(C)CCO)nc(N2CCOCC2)c1` [Example 18, N-(2-hydroxyethyl)-N-methyl-4-[2-methyl-5-[(3S)-3-(2,2,2-trifluoroethyl)pyrrolidine-1-carbonylamino]phenyl]-6-(morpholin-4-yl)pyridine-2-carboxamide], the IC50 is under 1 nM.

Consider `Cc1cc(F)c(NC(=O)N2CC[C@@H](C(F)(F)C(F)(F)F)C2)cc1-c1cc(-c2cnn(C)c2)nc(N2CCOCC2)c1` (single isomer, unassigned) [Example 80], for which the half-maximal inhibitory concentration (IC50) was in the range of 1 to 10 nM.

As to `Cc1ccc(NC(=O)N2CC[C@@H](CC(F)(F)F)C2)cc1-c1cc(C2CCN(C)C2)nc(N2CCOCC2)c1` (stereo partly drawn) [Example 38, (3S)—N-(4-methyl-3-(2-(1-methylpyrrolidin-3-yl)-6-morpholinopyridin-4-yl)phenyl)-3-(2,2,2-trifluoroethyl)pyrrolidine-1-carboxamide formate], the IC50 was in the range of 1 to 10 nM.

Take `Cc1ccc(NC(=O)N2CC[C@@H](CC(F)(F)F)C2)cc1-c1cc(C#CC(C)N)nc(N2CCOCC2)c1` (stereo partly drawn) [Example 55, (3S)—N-{3-[2-(3-aminobut-1-yn-1-yl)-6-(morpholin-4-yl)pyridin-4-yl]-4-methylphenyl}-3-(2,2,2-trifluoroethyl)pyrrolidine-1-carboxamide]: the half-inhibitory concentration (IC50) fell in the range of 1 to 10 nM.

With `Cc1ccc(NC(=O)N2CC[C@@H](CC(F)(F)F)C2)cc1-c1cc(-c2cn(C)nc2C)nc(N2CCOCC2)c1` [Example 37, (3S)—N-[3-[2-(1,3-dimethylpyrazol-4-yl)-6-(morpholin-4-yl)pyridin-4-yl]-4-methylphenyl]-3-(2,2,2-trifluoroethyl)pyrrolidine-1-carboxamide], the half-maximal inhibitory concentration (IC50) was 1 to 10 nM.

For `Cc1ccc(NC(=O)N2CC[C@@H](CC(F)(F)F)C2)cc1-c1cc(-c2c[nH]cn2)nc(N2CCOCC2)c1` [Example 53, (3S)—N-[3-[2-(1H-imidazol-4-yl)-6-(morpholin-4-yl)pyridin-4-yl]-4-methylphenyl]-3-(2,2,2-trifluoroethyl)pyrrolidine-1-carboxamide], the half-maximal inhibitory concentration (IC50) fell in the range of 1 to 10 nM.

Regarding `Cc1cc(F)c(NC(=O)N2CC=C(C(F)(F)C(F)(F)F)C2)cc1-c1cc(-c2cnn(C)c2)nc(N2CCOCC2)c1` [Example 79, N-{2-fluoro-4-methyl-5-[2-(1-methylpyrazol-4-yl)-6-(morpholin-4-yl)pyridin-4-yl]phenyl}-3-(1,1,2,2,2-pentafluoroethyl)-2,5-dihydropyrrole-1-carboxamide], the IC50 fell in the range of 1 to 10 nM.

As for `Cc1ccc(NC(=O)N2CC[C@@H](CC(F)(F)F)C2)cc1-c1cc([C@@H]2C[C@@H]2CO)nc(N2CCOCC2)c1` [Example 13, (3S)—N-(3-[2-[(1R,2S)-2-(hydroxymethyl)cyclopropyl]-6-(morpholin-4-yl)pyridin-4-yl]-4-methylphenyl)-3-(2,2,2-trifluoroethyl)pyrrolidine-1-carboxamide], the IC50 was under 1 nM.

For the compound `Cc1ccc(NC(=O)N2CC[C@@H](CC(F)(F)F)C2)cc1-c1cc(CC[C@@H](C)O)nc(N2CCOCC2)c1` [Example 12, (3S)—N-(3-[2-[(3R)-3-hydroxybutyl]-6-(morpholin-4-yl)pyridin-4-yl]-4-methylphenyl)-3-(2,2,2-trifluoroethyl)pyrrolidine-1-carboxamide], the IC50 is under 1 nM.

Take `Cc1ccc(NC(=O)N2CC[C@@H](CC(F)(F)F)C2)cc1-c1cc(C(=O)N[C@@H](C)CO)nc(N2CCOCC2)c1` [Example 8, N-[(2S)-1-hydroxypropan-2-yl]-4-[2-methyl-5-[(3S)-3-(2,2,2-trifluoroethyl)pyrrolidine-1-carbonylamino]phenyl]-6-(morpholin-4-yl)pyridine-2-carboxamide]: the IC50 is under 1 nM.

Regarding `Cc1ccc(NC(=O)N2CCO[C@@H](C(F)(F)F)C2)cc1-c1cc(-c2ccnn2C)nc(N2CCOCC2)c1` [Example 65, (2R)—N-{4-methyl-3-[2-(2-methylpyrazol-3-yl)-6-(morpholin-4-yl)pyridin-4-yl]phenyl}-2-(trifluoromethyl)morpholine-4-carboxamide], the IC50 was under 1 nM.

Consider `Cc1ccc(NC(=O)N2CC[C@@H](CC(F)(F)F)C2)cc1-c1cc(C#C[C@@H](C)O)nc(N2CCOCC2)c1` [Example 11, (3S)—N-(3-[2-[(3R)-3-hydroxybut-1-yn-1-yl]-6-(morpholin-4-yl)pyridin-4-yl]-4-methylphenyl)-3-(2,2,2-trifluoroethyl)pyrrolidine-1-carboxamide], for which the IC50 fell in the range of 1 to 10 nM.

Consider `Cc1cc(F)c(NC(=O)N2CC[C@@H](C(C)(C)C)C2)cc1-c1cc(-c2cnn(C)c2)nc(N2CCOCC2)c1` (single isomer, unassigned) [Example 82], for which the IC50 lay in the range of 1 to 10 nM.

In the case of `Cc1ccc(NC(=O)N2CC[C@@H](CC(F)(F)F)C2)cc1-c1cc(CCCO)nc(N2CCOCC2)c1` [Example 24, (3S)—N-[3-[2-(3-hydroxypropyl)-6-(morpholin-4-yl)pyridin-4-yl]-4-methylphenyl]-3-(2,2,2-trifluoroethyl)pyrrolidine-1-carboxamide], the IC50 was under 1 nM.

For `Cc1ccc(NC(=O)N2CC[C@@H](CC(F)(F)F)C2)cc1-c1cc(C(=O)NC[C@H](C)O)nc(N2CCOCC2)c1` [Example 7, N-[(2S)-2-hydroxypropyl]-4-[2-methyl-5-[(3S)-3-(2,2,2-trifluoroethyl)pyrrolidine-1-carbonylamino]phenyl]-6-(morpholin-4-yl)pyridine-2-carboxamide], the IC50 was under 1 nM.

Regarding `Cc1cc(F)c(NC(=O)N2CC[C@H](C(C)(C)C)C2)cc1-c1cc(-c2cnn(C)c2)nc(N2CCOCC2)c1` [Example 83, (3R)-3-tert-butyl-N-{2-fluoro-4-methyl-5-[2-(1-methylpyrazol-4-yl)-6-(morpholin-4-yl)pyridin-4-yl]phenyl}pyrrolidine-1-carboxamide], the 50% inhibitory concentration (IC50) was in the range of 1 to 10 nM.

`Cc1ccc(NC(=O)N2CCO[C@H](C(F)(F)F)C2)cc1-c1cc(-c2cnn(C)c2)nc(N2CCOCC2)c1` [Example 62, (2S)—N-{4-methyl-3-[2-(1-methylpyrazol-4-yl)-6-(morpholin-4-yl)pyridin-4-yl]phenyl}-2-(trifluoromethyl)morpholine-4-carboxamide]: the IC50 was 1 to 10 nM.

As for `Cc1ccc(NC(=O)N2CC[C@@H](CC(F)(F)F)C2)cc1-c1cc(N2CCOCC2)nc(C(C)(C)O)c1` [Example 27, (3S)—N-[3-[2-(2-hydroxypropan-2-yl)-6-(morpholin-4-yl)pyridin-4-yl]-4-methylphenyl]-3-(2,2,2-trifluoroethyl)pyrrolidine-1-carboxamide], the IC50 was in the range of 10 to 100 nM.

On to `Cc1ccc(NC(=O)N2CC[C@@H](CC(F)(F)F)C2)cc1-c1cc(-c2cnn(CCO)c2)nc(N2CCOCC2)c1` [Example 58, (3S)—N-(3-(2-(1-(2-hydroxyethyl)-1H-pyrazol-4-yl)-6-morpholinopyridin-4-yl)-4-methylphenyl)-3-(2,2,2-trifluoroethyl)pyrrolidine-1-carboxamide], for which the IC50 was in the range of 1 to 10 nM.

Usually IC50 stands for the concentration needed to halve the response being measured.
